Patent US12128024B2 (GEORGETOWN UNIVERSITY, priority 2004, dated 2024)

Tests used:
[1] = test system: Namalwa, EBV positive Burkitt's lymphoma B cell line; assay: Trypan blue viability of EBV positive lymphoid cell line (FIG. 4); assay type: cell-based; conditions: human gammaherpesvirus 4, B-cell; 6.25 μM DHA; Namalwa cells; read-out: cells killed (viability as % of controls, trypan blue)
Description: (§1) One cell line, referred to as MJ, is an HTLV-I positive cutneous T cell leukemia line and the other cell line, referred to Namalwa, is an EBV positive Burkitt's lymphoma B cell line.
(§2) The cell lines were maintained in culture, using RPMI 1640 medium, supplemented with 10% fetal bovine serum and antibiotics. For the assay, 100,000 cells, in volumes of 100 μl medium, were placed in micro-titer wells; an additional 100 μl medium, containing 0 μM, 6.25 μM, 12.5 μM, 25 μM, 50 μM, 100 μM and 200 μM concentrations of DHA, were added. The negative controls contained medium only. The DHA stock (20 mM) was used to dilute the drug in concentrations ranging from 0 to 200 μM. All experiments were performed in triplicate. After incubation at 37° C. and 5% CO2, for various time periods, the cells were counted in a hemocytometer in the presence of trypan blue. Viability was expressed, as % of controls (no drug).

[2] = test system: cervical cancer cell lines (HeLa, SiHa, Caski); assay: Viability dose-response of cervical cancer cell lines (FIG. 3); assay type: cell-based; conditions: 72 h, 25 μM DHA, within 3 days of treatment, read-out: loss of viability
[3] = test system: HeLa cells; assay: Viability dose-response of HeLa cells (FIG. 3); assay type: cell-based; conditions: 25 μM DHA
[4] = cited from earlier work
[5] = test system: MJ, HTLV-I positive cutneous T cell leukemia line; assay: Trypan blue viability of HTLV-I positive lymphoid cell line (FIG. 5); assay type: cell-based; conditions: Primate T-lymphotropic virus 1, T-cell; 6.25 μM DHA; MJ cells; read-out: cells killed (viability as % of controls, trypan blue)
Description: as §1, §2

[6] = test system: normal cervical cells (HCX); assay: Morphology of normal cervical cells after artemisinin treatment (phase contrast microscopy, FIG. 2); assay type: cell-based; conditions: 25 μM artemisinin, 3 days, vs control solvent
[7] = test system: cervical cancer cell lines; assay: Morphology of cervical cancer cell lines after artemisinin treatment (phase contrast microscopy, FIG. 2); assay type: cell-based; conditions: 25 μM artemisinin, 3 days, vs control solvent

## C[C@H]1[C@@H](O)O[C@@H]2O[C@@]3(C)CC[C@H]4[C@H](C)CC[C@@H]1[C@@]24OO3 [DHA, dihydroartemisinin]
[1]
  cytotoxicity at 6.25 µM: ~60%
[2]
  cytotoxicity at 25 µM: 80%
[3]
  cell death: 95%
[4]
  solubility in water compared with artemisinin: higher solubility in water
[5]
  cytotoxicity at 6.25 µM: ~60%

## CCO[C@H]1O[C@@H]2O[C@@]3(C)CC[C@H]4[C@H](C)CC[C@@H]([C@H]1C)[C@@]24OO3 [arteether]
[4]
  solubility in water compared with artemisinin: higher solubility in water

## C[C@H]1[C@@H](OCc2ccc(C(=O)O)cc2)O[C@@H]2O[C@@]3(C)CC[C@H]4[C@H](C)CC[C@@H]1[C@@]24OO3 [artelinic acid]
[4]
  solubility in water compared with artemisinin: higher solubility in water

## CO[C@H]1O[C@@H]2O[C@@]3(C)CC[C@H]4[C@H](C)CC[C@@H]([C@H]1C)[C@@]24OO3 [artemether]
[4]
  solubility in water compared with artemisinin: higher solubility in water

## C[C@@H]1CC[C@H]2[C@@H](C)C(=O)O[C@@H]3O[C@@]4(C)CC[C@@H]1[C@]32OO4 [artemisinin]
[6]
  change in morphology of normal cervical cells (HCX): little change in morphology
[7]
  change in morphology of cervical cancer cells: rounded up and detached from the tissue culture plate

## CCCOC(=O)OC1O[C@@H]2O[C@@]3(C)CC[C@H]4[C@H](C)CC[C@@H]([C@H]1C)[C@@]24OO3 (some centres unmarked) [propylcarbonate dihydroartemisinin]
[4]
  solubility in water compared with artemisinin: higher solubility in water
